The source of these data is US20250206745A1, “PYRROLOPYRIDAZINE DERIVATIVES AND RELATED USES” (NodThera Limited, priority 2023, published 2025).

The IC50 is the concentration needed to halve the response being measured. A high value points to lower potency.

In assay [1] the test system is IL-1β release upon NLRP3 activation in peripheral blood mononuclear cells (PBMC). The assay can be described thus: PBMC IC50 Determination Assay. Format: cell-based. Conditions: Homo sapiens; inhibition of IL-1β release; PBMC primed with LPS, stimulated with ATP or nigericin; ELISA or HTRF. As to the method: The compounds of the present disclosure were tested for their inhibitory activity against IL-1β release upon NLRP3 activation in peripheral blood mononuclear cells (PBMC).
Protocol A. PBMC were isolated from buffy coats by density gradient centrifugation on Histopaque-1077 (Sigma, cat no. 10771). Isolated cells were seeded into the wells of a 96-well plate and incubated for 3 h with lipopolysaccharide (LPS). Following medium exchange, the compounds of the present disclosure were added (a single compound per well) and the cells were incubated for 30 min. Next, the cells were stimulated either with ATP (5 mM) or nigericin (10 μM) for 1 h and the cell culture media from the wells were collected for further analysis.
The release of IL-1β into the media was determined by a quantitative detection of IL-1β in the media using an IL-1β enzyme-linked immunosorbent assay (ELISA) Ready-SET-Go!, eBioscience cat. No. 88-7261-88. Briefly, in a first step, high affinity binding plates (Corning, Costar 9018 or NUNC Maxisorp Cat No. 44-2404) were coated overnight at 4° C. with specific capture antibody included in the kit (anti-human IL-1β ref. 14-7018-68). Subsequently, plates were blocked with blocking buffer for 1 h at room temperature (rt) and after washing with a buffer (PBS with 0.05% Tween-20) incubated with protein standard and culture media. After 2 h of incubation at rt, plates were washed and incubated with biotinylated detection antibody included in the kit (anti-human IL-1β Biotin ref. 33-7110-68) for 1 h at rt. Plates were washed and incubated with HRP-streptavidin for 30 min at rt and washed again. The signal was developed after addition of 3,3′,5,5′-tetramethylbenzidine-peroxidase (TMB) until colour appeared and the reaction was stopped by 2 M H2SO4. A microplate spectrophotometer (BioTek) was used to detect signals with 450 nm. The detection range of IL-1β ELISA was […].
Protocol B. PBMC were isolated from buffy coats by density gradient centrifugation on Histopaque-1077 (Sigma, cat no. 10771). Isolated cells were seeded into the wells (280,000 cells/well) of a 96-well plate and incubated for 3 h with lipopolysaccharide (LPS, 1 μg/mL diluted 1000× from a 1 mg/mL stock solution). The compounds of the present disclosure were added (a single compound per well) and the cells were incubated for 30 min. Next, the cells were stimulated with ATP (5 mM final concentration diluted 20× from a 100 mM stock solution) for 1 h and the cell culture media from the wells were collected for further analysis.
The release of IL-1β into the media was determined by quantitative detection of IL-1β in the media using HTRF®, CisBio cat. No. 62HIL1BPEH. Briefly, cell culture supernatant were dispensed directly into the assay plate containing antibodies labelled with the HTRF® donor and acceptor. A microplate spectrophotometer (BMG) was used to detect signals at 655 nm and 620 nm. The detection range of IL-1β HTRF® was 39-6500 pg/mL.
In general terms: ELISA stands for enzyme-linked immunosorbent assay.

The subject of assay [2] is IL-1β release upon NLRP3 activation in phorbol 12-myristate 13-acetate (PMA)-differentiated THP-1 cells. Briefly: THP-1 IC50 Determination Assay. Format: cell-based. Conditions: Homo sapiens, inhibition of IL-1β release, LPS, nigericin, ELISA. Here is the method:
The compounds of the present disclosure were tested for their inhibitory activity against IL-1β release upon NLRP3 activation in phorbol 12-myristate 13-acetate (PMA)-differentiated THP-1 cells.
THP-1 cells stored in liquid nitrogen were thawed in a 37° C. water bath. The cells were added into complete RPMI 1640 medium (FBS (56 mL), 100× Penicillin-Streptomycin (5.6 mL) and 0.05 mM 2-Mercaptoethanol in RPMI 1640 Medium (500 mL)) and centrifuged for 5 min at 1000 rpm. The supernatant was discarded and the cells resuspended into new cell culture medium for culturing. Cells were cultured in cell culture medium and passaged every 3-4 days to maintain cell density between 4×10^5 and 1.5×10^6 cells/mL. The cells were diluted to 0.8×10^6 cells/mL and grown in a T150 flask with PMA (final concentration 5 ng/mL). The flask was incubated in a 37° C. incubator with a humidified atmosphere of 5% CO2 for −40 hours. After −40 hours of PMA differentiation, the flask was washed with DPBS. Cells were digested with Trypsin LE for about 5 min at room temperature, and digestion was terminated using complete RPMI 1640 medium. Cells were centrifuged and resuspended (1000 rpm, 3 min). The supernatant was discarded and cells washed with DPBS, centrifuged and resuspended cells (1000 rpm, 5 min). Cells were plated at 30,000 cells/well in a 384-well PP plate and treated with 25 ng/mL LPS solution diluted in serum-free medium (45 μL). The plate was incubated in a 37° C. incubator with a humidified atmosphere of 5% CO2 for 2 hours. Compounds (from 10 mM DMSO solution) were dispensed and serially diluted by 1:3 eight times, with final 0.5% DMSO concentration. NLRP3 inflammasome was activated with nigericin (5 μL), the plate was centrifuged (1000 rpm, 30 s) and incubated in a 37° C. incubator with a humidified atmosphere of […] for 2 hours. 35 μL/well of supernatant was removed and IL-1β levels determined by ELISA assay (Mabtech 3416-1H-20) according to the manufacturer's instructions.

Counter-ions that a name gives are not always drawn.

For `CC(=O)N1CCC(Cn2ccc3cc(-c4c(C)cc(Cl)cc4O)nnc32)CC1` [Compound 9, 1-(4-{[3-(4-Chloro-2-hydroxy-6-methylphenyl)-7H-pyrrolo[2,3-c]pyridazin-7-yl]methyl}piperidin-1-yl)ethan-1-one], the IC50 in assay [1] and in assay [2] was 30 to 100 nM throughout.
Take `Cc1cc(Cl)cc(O)c1-c1cc2ccn(CC3CCN(CC(F)F)CC3)c2nn1` [Compound 10, 5-Chloro-2-(7-{[1-(2,2-difluoroethyl)piperidin-4-yl]methyl}-7H-pyrrolo[2,3-c]pyridazin-3-yl)-3-methylphenol hydrochloride]: the half-maximal inhibitory concentration (IC50) in assay [1] and in assay [2] was 100 to 300 nM in each case.
Consider `Cc1cc(Cl)cc(O)c1-c1cc2ccn(CC3CCN(C)C(=O)C3)c2nn1` (stereo not drawn) [Compound 11, 4-{[3-(4-Chloro-2-hydroxy-6-methylphenyl)-7H-pyrrolo[2,3-c]pyridazin-7-yl]methyl}-1-methylpiperidin-2-one], for which the IC50 in assay [1] and in assay [2] was 100 to 300 nM each time.
Take `Cc1cc(Cl)cc(O)c1-c1cc2ccn(CCN3CCOCC3)c2nn1` [Compound 12, 5-Chloro-3-methyl-2-{7-[2-(morpholin-4-yl)ethyl]-7H-pyrrolo[2,3-c]pyridazin-3-yl}phenol hydrochloride]: the half-maximal inhibitory concentration (IC50) lay within 300 to 1000 nM in assay [1] and 100 to 300 nM in assay [2].
In the same order, the values of `Cc1cc(Cl)cc(O)c1-c1cc2ccn(CCN3CCN(C)CC3)c2nn1` [Compound 13, 5-Chloro-3-methyl-2-{7-[2-(4-methylpiperazin-1-yl)ethyl]-7H-pyrrolo[2,3-c]pyridazin-3-yl}phenol dihydrochloride] are 300 to 1000 nM and 300 to 1000 nM.
Taken in the same sequence, the figures for `Cc1cc(Cl)cc(O)c1-c1cc2ccn(CC3CCCCN3C)c2nn1` (stereo not drawn) [Compound 14, 5-Chloro-3-methyl-2-{7-[(1-methylpiperidin-2-yl)methyl]-7H-pyrrolo[2,3-c]pyridazin-3-yl}phenol] were 100 to 300 nM and 100 to 300 nM.
Taken in the same sequence, the figures for `Cc1cc(Cl)cc(O)c1-c1cc2ccn(CC3CCN(C4COC4)CC3)c2nn1` [Compound 15, 5-Chloro-3-methyl-2-(7-{[1-(oxetan-3-yl)piperidin-4-yl]methyl}-7H-pyrrolo[2,3-c]pyridazin-3-yl)phenol] were 100 to 300 nM and 100 to 300 nM.
On to `Cc1cc(Cl)cc(O)c1-c1cc2ccn(CC3CCOC3)c2nn1` (stereo not drawn) [Compound 16, 5-Chloro-3-methyl-2-{7-[(oxolan-3-yl)methyl]-7H-pyrrolo[2,3-c]pyridazin-3-yl}phenol], for which the IC50 in assay [1] and in assay [2] was 100 to 300 nM each time.
Regarding `COC(=O)N1CCC(Cn2ccc3cc(-c4c(C)cc(Cl)cc4O)nnc32)CC1` [Compound 17, Methyl 4-{[3-(4-chloro-2-hydroxy-6-methylphenyl)-7H-pyrrolo[2,3-c]pyridazin-7-yl]methyl}piperidine-1-carboxylate], the IC50 in assay [1] and in assay [2] was 100 to 300 nM each time.
With `COCCN1CCC(Cn2ccc3cc(-c4c(C)cc(Cl)cc4O)nnc32)CC1` [Compound 18, 5-Chloro-2-(7-{[1-(2-methoxyethyl)piperidin-4-yl]methyl}-7H-pyrrolo[2,3-c]pyridazin-3-yl)-3-methylphenol], the IC50 in assay [1] and in assay [2] was 100 to 300 nM in each case.
With `CNC(=O)Cn1ccc2cc(-c3c(C)cc(Cl)cc3O)nnc21` [Compound 19, 2-[3-(4-Chloro-2-hydroxy-6-methylphenyl)-7H-pyrrolo[2,3-c]pyridazin-7-yl]-N-methylacetamide], the IC50 in assay [1] and in assay [2] was 300 to 1000 nM each time.
On to `CNC(=O)CCn1ccc2cc(-c3c(C)cc(Cl)cc3O)nnc21` [Compound 20, 3-[3-(4-Chloro-2-hydroxy-6-methylphenyl)-7H-pyrrolo[2,3-c]pyridazin-7-yl]-N-methylpropanamide], for which the IC50 in assay [1] and in assay [2] was 300 to 1000 nM throughout.
On to `COCCn1ccc2cc(-c3c(C)cc(Cl)cc3O)nnc21` [Compound 21, 5-Chloro-2-[7-(2-methoxyethyl)-7H-pyrrolo[2,3-c]pyridazin-3-yl]-3-methylphenol], for which the IC50 in assay [1] was 100 to 300 nM; in assay [2], 300 to 1000 nM.
With `Cc1cc(Cl)cc(O)c1-c1cc2ccn(CCN(C)C)c2nn1` [Compound 22, 5-Chloro-2-{7-[2-(dimethylamino)ethyl]-7H-pyrrolo[2,3-c]pyridazin-3-yl}-3-methylphenol hydrochloride], the IC50 in assay [1] and in assay [2] was 300 to 1000 nM in each case.
Consider `COCCCn1ccc2cc(-c3c(C)cc(Cl)cc3O)nnc21` [Compound 23, 5-Chloro-2-[7-(3-methoxypropyl)-7H-pyrrolo[2,3-c]pyridazin-3-yl]-3-methylphenol], for which the IC50 in assay [1] and in assay [2] was 300 to 1000 nM throughout.
For the molecule `Cc1cc(Cl)cc(O)c1-c1cc2ccn(CC3CCCCO3)c2nn1` (stereo not drawn) [Compound 25, 5-Chloro-3-methyl-2-{7-[(oxan-2-yl)methyl]-7H-pyrrolo[2,3-c]pyridazin-3-yl}phenol], the IC50 in assay [1] and in assay [2] was 100 to 300 nM throughout.
Take `Cc1cc(Cl)cc(O)c1-c1cc2ccn(CC3CCN(CC#N)CC3)c2nn1` [Compound 26, 2-(4-{[3-(4-Chloro-2-hydroxy-6-methylphenyl)-7H-pyrrolo[2,3-c]pyridazin-7-yl]methyl}piperidin-1-yl)acetonitrile]: the IC50 in assay [1] and in assay [2] was 300 to 1000 nM each time.
For `Cc1cc(Cl)cc(O)c1-c1cc2ccn(CC3(F)CCN(C)CC3)c2nn1` [Compound 27, 5-Chloro-2-{7-[(4-fluoro-1-methylpiperidin-4-yl)methyl]-7H-pyrrolo[2,3-c]pyridazin-3-yl}-3-methylphenol hydrochloride], the IC50 lay within 30 to 100 nM in assay [1] and 100 to 300 nM in assay [2].
On to `Cc1cc(Cl)cc(O)c1-c1cc2ccn(CC3CN(C)C3)c2nn1` [Compound 28, 5-Chloro-3-methyl-2-{7-[(1-methylazetidin-3-yl)methyl]-7H-pyrrolo[2,3-c]pyridazin-3-yl}phenol hydrochloride], for which the IC50 in assay [1] and in assay [2] was 300 to 1000 nM each time.
Regarding `Cc1cc(Cl)cc(O)c1-c1cc2ccn(CCCN(C)C)c2nn1` [Compound 29, 5-Chloro-2-{7-[3-(dimethylamino)propyl]-7H-pyrrolo[2,3-c]pyridazin-3-yl}-3-methylphenol hydrochloride], the IC50 in assay [1] and in assay [2] was 1000 to 3000 nM each time.
In the case of `Cc1cc(Cl)cc(O)c1-c1cc2ccn(CC(=O)N3CCCC3)c2nn1` [Compound 30, 2-[3-(4-Chloro-2-hydroxy-6-methylphenyl)-7H-pyrrolo[2,3-c]pyridazin-7-yl]-1-(pyrrolidin-1-yl)ethan-1-one], the IC50 in assay [1] and in assay [2] was 300 to 1000 nM throughout.
